Like-named read-outs stand apart in the source and are kept apart here.
How the values were obtained:
[1] = target: T1, RBL-1 Cell 5-Lipoxygenase (Rattus norvegicus, UniProt P12527); test: Procedure II: 5-lipoxygenase inhibition in disrupted RBL-1 cells (supernatant as enzyme source); type: biochemical; settings: for IC50: read-out: IC50 5-LO (Procedure II)
T1 construct: the supernatant was saved as the source of enzymes; endogenous in cells; host or cells: RBL-1 (rat basophilic leukemia cells), 10,000×g supernatant of homogenate
T1 sequence (P12527 1-673): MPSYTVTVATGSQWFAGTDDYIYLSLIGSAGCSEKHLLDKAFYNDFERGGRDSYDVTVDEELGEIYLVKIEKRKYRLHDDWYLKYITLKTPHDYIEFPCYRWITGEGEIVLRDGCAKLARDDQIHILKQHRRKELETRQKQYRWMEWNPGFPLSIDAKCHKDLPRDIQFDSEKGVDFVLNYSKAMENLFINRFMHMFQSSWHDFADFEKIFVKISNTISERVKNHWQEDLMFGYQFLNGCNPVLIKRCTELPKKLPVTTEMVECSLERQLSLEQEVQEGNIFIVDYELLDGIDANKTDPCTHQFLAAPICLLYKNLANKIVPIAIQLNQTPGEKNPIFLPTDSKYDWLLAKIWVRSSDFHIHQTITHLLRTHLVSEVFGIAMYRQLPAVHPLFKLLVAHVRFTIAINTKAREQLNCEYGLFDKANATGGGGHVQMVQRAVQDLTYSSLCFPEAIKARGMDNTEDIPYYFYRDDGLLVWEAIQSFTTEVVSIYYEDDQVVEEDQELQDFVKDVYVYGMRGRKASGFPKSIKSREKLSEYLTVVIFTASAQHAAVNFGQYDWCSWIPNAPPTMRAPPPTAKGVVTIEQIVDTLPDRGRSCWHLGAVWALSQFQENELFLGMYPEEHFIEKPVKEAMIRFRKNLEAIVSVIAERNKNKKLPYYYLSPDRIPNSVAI
Protocol: RBL-1 Cell 5-Lipoxygenase and Cyclooxygenase
Rat basophilic leukemia cells (RBL-1; 5×10^7 viable cells/mL) were disrupted by homogenization on ice (four 20 sec bursts) with a Brinkman polytron. Complete cell breakage was verified microscopically. The homogenate was then centrifuged at 10,000×g for 48 minutes at 4° C. The pellet was discarded and the supernatant was saved as the source of enzymes. The supernatant was pre-incubated for five minutes at 37° C. in the presence of 2 mM of CaCl2 and compound or vehicle (1% DMSO). The conversion of AA into 5-LO products was initiated by adding 10 μL (50 μCi) of 1-^14 C-AA to each tube and incubated at 37° C. for 20 minutes. The reaction was stopped by adjusting the pH of each sample to 3 to 3.5 with 2M formic acid. Samples were extracted with three volumes of chloroform to isolate the products of 5-LO formed during the reaction. Fractions were dried under nitrogen, then resuspended in 40 μL of chloroform and spotted onto silica gel HL plates. The plates were developed in A-9 solvent. The dried plates were analyzed using a Bioscan Imaging TLC scanner to determine the percentage of radiolabelled AA converted to 5-HETE in each sample.
(§1) In the following tables, the superscripts indicate the number of experiments and, unless otherwise stated, the dose at which % inhibition is reported is 3 MPK.

[2] = tested on: CO (prostaglandin F2a or TxB2) in dog whole blood; test: Procedure IV: ex vivo eicosanoid synthesis in dog whole blood after oral dosing, CO; settings: Canis lupus familiaris, read-out: % INHIB/HOURS CO (Proc. IV); for inhibition at 1 mg/kg: 1 MPK; for inhibition at 5 mg/kg: 5 MPK
Protocol: (§2) Ex Vivo eicosanoid synthesis in dog whole blood. Adult beagle or mongrel dogs (10-15 kg) of either sex were fasted overnight prior to the initiation of each experiment. The forelimb was clipped and swabbed with an alcohol prep (70% isopropanol). Blood was drawn by venipuncture into syringes containing lithium heparin (Starstead, Newton N.C.) immediately prior to administration of compound or vehicle and then at various intervals following dosing. The test compound was administered orally as a suspension in 0.5% methocel. At various times after dosing, blood samples were drawn and placed on an electric rocker platform to assure complete and continuous mixing. White blood cell (wbc) counts were performed using a Sysmex hematology analyzer. This was done in an effort to normalize the number of leukocytes to be stimulated with calcium ionophore. A 1.0 mL aliquot of whole blood was challenged with 50 μL of a 2.6×10^-5 M solution of calcium ionophore A23187 (Calbiochem, La Jolla, Calif.) prepared in DMSO and diluted in HBSS. After a 15 minute incubation at 37° C., the reaction was stopped by placing the samples in an ice bath (4° C.) for 5 minutes and then centrifuged at 11,000×g for 5 minutes to separate the plasma fraction from blood cells. The plasma fraction was removed, diluted in an appropriate buffer, and analyzed for the presence of LTB4 and prostaglandin F2a or TxB2 by standard RIA techniques.
as §1

[3] = tested on: 5-LO (LTB4) in dog whole blood; test: Procedure IV: ex vivo eicosanoid synthesis in dog whole blood after oral dosing, 5-LO; settings: Canis lupus familiaris, read-out: % INHIB/HOURS 5-LO (Proc. IV); for inhibition at 1 mg/kg: 1 MPK; for inhibition at 5 mg/kg: 5 MPK
Protocol: as §2, §1

Row | Structure (SMILES) | % INHIBITION 5-LO (Procedure II) [1] [%] | IC50 [1] [nM] | other results
1 | COc1ccc(-n2nc(COC(=O)N(C)O)cc2-c2ccc(Cl)cc2)cc1 [1-B] | 85 | 480 | –
2 | COc1ccc(-n2nc(COC(=O)NO)c(Br)c2-c2ccc(Cl)cc2)cc1 [1-D] | 28 | 840 | –
3 | COc1ccc(-n2nc(COC(=O)N(C)O)c(Br)c2-c2ccc(Cl)cc2)cc1 [1-E] | 85 | 280 | –
4 | COc1ccc(-n2nc(COC(=O)NO)c(Cl)c2-c2ccc(Cl)cc2)cc1 [1-G] | 25 | 750 | –
5 | COc1ccc(-n2nc(COC(=O)N(O)C(C)C)c(Cl)c2-c2ccc(Cl)cc2)cc1 [1-I] | 83 | 230 | –
6 | COc1ccc(-n2nc(COC(=O)N(C)O)cc2-c2ccc(C)cc2)cc1 [1-K] | 58 | 300 | inhibition at 3 mg/kg ([2]; 3 MPK, 2 hours): 95%; inhibition at 3 mg/kg ([3]; 3 MPK, 2 hours): 21%
7 | COc1ccc(-n2nc(COC(=O)N(O)C(C)C)cc2-c2ccc(C)cc2)cc1 [1-L] | 86 | 480 | inhibition at 1 mg/kg ([2]; 2 hours): 68%; inhibition at 1 mg/kg ([3]; 2 hours): 22%
8 | COc1ccc(-n2nc(COC(=O)N(O)C(C)C)c(Br)c2-c2ccc(C)cc2)cc1 [1-O] | 81 | 180 | –
9 | COc1ccc(-n2nc(COC(=O)NO)c(Cl)c2-c2ccc(C)cc2)cc1 [1-P] | 30 | 890 | inhibition at 5 mg/kg ([2]; 2 hours): 72%; inhibition at 5 mg/kg ([3]; 2 hours): 27%
10 | COc1ccc(-n2nc(COC(=O)N(C)O)c(Cl)c2-c2ccc(C)cc2)cc1 [1-Q] | 88 | 50 | –
11 | COc1ccc(-n2nc(COC(=O)N(O)C(C)C)c(Cl)c2-c2ccc(C)cc2)cc1 [1-R] | 87 | 100 | inhibition at 1 mg/kg ([2]; 2 hours): 7%; inhibition at 1 mg/kg ([3]; 2 hours): 6%
12 | COc1ccc(-n2nc(CCOC(=O)N(O)C(C)C)cc2-c2ccc(Cl)cc2)cc1 [2-B] | 84 | 100 | inhibition at 5 mg/kg ([2]; 2 hours): 33%; inhibition at 5 mg/kg ([3]; 2 hours): 0%
13 | COc1ccc(-n2nc(CCOC(=O)N(O)C(C)C)c(Br)c2-c2ccc(Cl)cc2)cc1 [2-F] | 71 | 140 | inhibition at 5 mg/kg ([2]; 24 hours): 42%; inhibition at 5 mg/kg ([3]; 24 hours): 11%
14 | COc1ccc(-n2nc(CCOC(=O)N(C)O)cc2-c2ccc(C)cc2)cc1 [2-G] | 82 | 640 | –
15 | COc1ccc(-n2nc(CCOC(=O)N(O)C(C)C)cc2-c2ccc(C)cc2)cc1 [2-H] | 83 | 60 | –
16 | COc1ccc(-n2nc(CCOC(=O)N(C)O)c(Cl)c2-c2ccc(C)cc2)cc1 [2-I] | 78 | 100 | inhibition at 5 mg/kg ([2]; 6 hours): 0%; inhibition at 5 mg/kg ([3]; 6 hours): 0%
17 | COc1ccc(-n2nc(CCOC(=O)N(O)C(C)C)c(Cl)c2-c2ccc(C)cc2)cc1 [2-J] | 74 | 30 | inhibition at 5 mg/kg ([2]; 4 hours): 73%; inhibition at 5 mg/kg ([3]; 4 hours): 26%
18 | COc1ccc(-n2nc(CCOC(=O)N(C)O)c(Br)c2-c2ccc(C)cc2)cc1 [2-L] | 75 | 90 | –
19 | COc1ccc(-n2nc(CCCOC(=O)N(C)O)cc2-c2ccc(Cl)cc2)cc1 [3-B] | 96 | 120 | inhibition at 5 mg/kg ([2]; 6 hours): 94%; inhibition at 5 mg/kg ([3]; 6 hours): 11%
20 | COc1ccc(-n2nc(CCCOC(=O)N(O)C(C)C)c(Br)c2-c2ccc(Cl)cc2)cc1 [3-G] | 80 | 30 | –

Further lines, with some results ahead:

Row | % INHIBITION 5-LO (Procedure II) [1] [%] | IC50 [1] [nM] | Structure (SMILES) | other results
21 | 20 | 1270 | COc1ccc(-n2nc(COC(=O)NO)cc2-c2ccc(Cl)cc2)cc1 [1-A] | –
22 | 88 | 1020 | COc1ccc(-n2nc(COC(=O)N(O)C(C)C)cc2-c2ccc(Cl)cc2)cc1 [1-C] | –
23 | 63 | 120 | COc1ccc(-n2nc(COC(=O)N(O)C(C)C)c(Br)c2-c2ccc(Cl)cc2)cc1 [1-F] | inhibition at 7.5 mg/kg ([2]; 7.5 MPK, 6 hours): 82%; inhibition at 7.5 mg/kg ([3]; 7.5 MPK, 6 hours): 38%
24 | 83 | < 100 | COc1ccc(-n2nc(COC(=O)N(C)O)c(Cl)c2-c2ccc(Cl)cc2)cc1 [1-H] | –
25 | 33 | 1750 | COc1ccc(-n2nc(COC(=O)NO)cc2-c2ccc(C)cc2)cc1 [1-J] | –
26 | 63 | 5300 | COc1ccc(-n2nc(COC(=O)NO)c(Br)c2-c2ccc(C)cc2)cc1 [1-M] | –
27 | 74 | 410 | COc1ccc(-n2nc(COC(=O)N(C)O)c(Br)c2-c2ccc(C)cc2)cc1 [1-N] | –
28 | 82 | 60 | COc1ccc(-n2nc(CCOC(=O)N(C)O)cc2-c2ccc(Cl)cc2)cc1 [2-A] | inhibition at 2.5 mg/kg ([2]; 2.5 MPK, 6 hours): 32%; inhibition at 2.5 mg/kg ([3]; 2.5 MPK, 6 hours): 0%
29 | 69 | 470 | COc1ccc(-n2nc(CCOC(=O)N(C)O)c(Cl)c2-c2ccc(Cl)cc2)cc1 [2-C] | –
30 | 70 | 70 | COc1ccc(-n2nc(CCOC(=O)N(O)C(C)C)c(Cl)c2-c2ccc(Cl)cc2)cc1 [2-D] | inhibition at 5 mg/kg ([2]; 2 hours): 41%; inhibition at 5 mg/kg ([3]; 2 hours): 32%
31 | 72 | 190 | COc1ccc(-n2nc(CCOC(=O)N(C)O)c(Br)c2-c2ccc(Cl)cc2)cc1 [2-E] | inhibition at 5 mg/kg ([2]; 6 hours): 62%; inhibition at 5 mg/kg ([3]; 6 hours): 57%
32 | 59 | 680 | COc1ccc(-n2nc(CCOC(=O)NO)c(Br)c2-c2ccc(C)cc2)cc1 [2-K] | –
33 | 83 | 3000 | COc1ccc(-n2nc(CCCOC(=O)NO)cc2-c2ccc(Cl)cc2)cc1 [3-A] | –
34 | 80 | 30 | COc1ccc(-n2nc(CCCOC(=O)N(O)C(C)C)cc2-c2ccc(Cl)cc2)cc1 [3-C] | –

— patent US5387602A, “1.5-diphenyl-3-(N-hydroxycarbamoyloxyalkyl)pyrazoles” (Ortho Pharmaceutical Corporation, priority 1993, dated 1995)
